Experimental data as given in patent US9951038B2, “Quinazolin-4(3H)-one-type piperidine compounds and uses thereof” (Purdue Pharma L.P., priority 2012, dated 2018).

Experiments:
[1] = biological target: human opioid receptor-like (ORL-1) (Homo sapiens, UniProt P41146); assay: In vitro ORL-1 receptor [35S]GTPγS functional assay; format: biochemical; details: for Emax: read-out: ORL-1 GTPγS Emax
[2] = biological target: T1, CYP1A2 (Homo sapiens, UniProt P05177); assay: Cytochrome P450 inhibition, pooled human hepatic microsome, CYP1A2; format: in vitro ADME
T1 sequence (P05177 1-516): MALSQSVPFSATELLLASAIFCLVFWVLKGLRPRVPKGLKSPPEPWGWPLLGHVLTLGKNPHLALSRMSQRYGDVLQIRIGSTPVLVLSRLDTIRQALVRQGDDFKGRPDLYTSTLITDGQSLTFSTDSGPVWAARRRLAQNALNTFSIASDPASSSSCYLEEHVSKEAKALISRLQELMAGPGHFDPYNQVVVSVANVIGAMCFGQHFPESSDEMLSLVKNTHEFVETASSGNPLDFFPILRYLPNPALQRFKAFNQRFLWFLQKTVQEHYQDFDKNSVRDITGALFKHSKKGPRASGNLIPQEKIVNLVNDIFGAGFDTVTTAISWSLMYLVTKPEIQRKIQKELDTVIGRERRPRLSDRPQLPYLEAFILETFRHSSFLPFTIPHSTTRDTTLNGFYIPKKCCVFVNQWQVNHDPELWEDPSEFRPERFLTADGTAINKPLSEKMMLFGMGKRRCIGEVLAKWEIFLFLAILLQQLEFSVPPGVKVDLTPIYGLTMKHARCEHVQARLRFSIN

[3] = biological target: T2, CYP2C9 (Homo sapiens, UniProt P11712); assay: Cytochrome P450 inhibition, pooled human hepatic microsome, CYP2C9; format: in vitro ADME
T2 construct: using commercially available pooled human hepatic microsome; from tissue; host or cells: pooled human hepatic microsomes

[4] = biological target: T3, CYP2D6 (Homo sapiens, UniProt P10635); assay: Cytochrome P450 inhibition, pooled human hepatic microsome, CYP2D6 (dextromethorphan O-demethylation); format: in vitro ADME; details: 5 μmol/L dextromethorphan, 15 min, 37° C.
T3 construct: using commercially available pooled human hepatic microsome; from tissue; host or cells: pooled human hepatic microsomes

[5] = biological target: T4, CYP3A4 (Homo sapiens, UniProt P08684); assay: Cytochrome P450 inhibition, pooled human hepatic microsome, CYP3A4; format: in vitro ADME
T4 construct: using commercially available pooled human hepatic microsome; from tissue; host or cells: pooled human hepatic microsomes

[6] = biological target: Nociceptin receptor (Homo sapiens, UniProt P41146); assay: biochemical
Sequence of Nociceptin receptor (P41146 whole entry, looked up): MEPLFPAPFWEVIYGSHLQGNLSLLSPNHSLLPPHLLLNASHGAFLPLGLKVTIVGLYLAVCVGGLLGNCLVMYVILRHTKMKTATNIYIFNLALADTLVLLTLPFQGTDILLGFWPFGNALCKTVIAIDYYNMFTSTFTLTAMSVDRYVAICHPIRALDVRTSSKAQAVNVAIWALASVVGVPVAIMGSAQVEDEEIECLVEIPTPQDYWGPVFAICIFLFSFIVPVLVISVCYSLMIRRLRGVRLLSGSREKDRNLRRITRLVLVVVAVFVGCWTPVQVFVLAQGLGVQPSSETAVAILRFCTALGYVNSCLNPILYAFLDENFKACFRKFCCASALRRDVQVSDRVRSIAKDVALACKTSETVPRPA

Sequence of human opioid receptor-like (ORL-1) (P41146 whole entry): as the sequence (P41146 whole entry, looked up) above
T3 sequence (P10635 whole entry): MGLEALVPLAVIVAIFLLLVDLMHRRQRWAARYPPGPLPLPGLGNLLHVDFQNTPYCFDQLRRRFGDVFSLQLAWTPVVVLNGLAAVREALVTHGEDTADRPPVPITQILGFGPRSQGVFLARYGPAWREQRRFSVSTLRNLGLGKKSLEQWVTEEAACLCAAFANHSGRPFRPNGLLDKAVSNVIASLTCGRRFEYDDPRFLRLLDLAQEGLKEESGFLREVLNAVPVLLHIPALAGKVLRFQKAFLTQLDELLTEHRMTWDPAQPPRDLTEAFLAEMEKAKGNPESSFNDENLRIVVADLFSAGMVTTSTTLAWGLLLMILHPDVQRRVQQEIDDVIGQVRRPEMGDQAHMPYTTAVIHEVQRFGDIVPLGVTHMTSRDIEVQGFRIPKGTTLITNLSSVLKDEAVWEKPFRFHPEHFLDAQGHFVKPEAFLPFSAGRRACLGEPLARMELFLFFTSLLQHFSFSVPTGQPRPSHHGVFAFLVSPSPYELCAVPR
T4 sequence (P08684 whole entry): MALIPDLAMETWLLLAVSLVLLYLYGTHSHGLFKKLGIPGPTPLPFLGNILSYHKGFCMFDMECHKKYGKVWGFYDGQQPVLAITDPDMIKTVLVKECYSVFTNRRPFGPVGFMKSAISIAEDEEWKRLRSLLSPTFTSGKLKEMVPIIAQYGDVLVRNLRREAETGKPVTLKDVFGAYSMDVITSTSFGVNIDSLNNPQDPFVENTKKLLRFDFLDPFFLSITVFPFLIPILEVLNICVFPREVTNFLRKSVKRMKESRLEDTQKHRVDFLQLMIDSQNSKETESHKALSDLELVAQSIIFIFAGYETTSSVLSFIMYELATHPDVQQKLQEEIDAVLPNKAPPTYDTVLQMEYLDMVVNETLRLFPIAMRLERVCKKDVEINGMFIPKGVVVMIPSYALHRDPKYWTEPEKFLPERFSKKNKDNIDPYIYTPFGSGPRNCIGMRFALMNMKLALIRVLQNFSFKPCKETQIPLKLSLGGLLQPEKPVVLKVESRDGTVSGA
T2 sequence (P11712 whole entry): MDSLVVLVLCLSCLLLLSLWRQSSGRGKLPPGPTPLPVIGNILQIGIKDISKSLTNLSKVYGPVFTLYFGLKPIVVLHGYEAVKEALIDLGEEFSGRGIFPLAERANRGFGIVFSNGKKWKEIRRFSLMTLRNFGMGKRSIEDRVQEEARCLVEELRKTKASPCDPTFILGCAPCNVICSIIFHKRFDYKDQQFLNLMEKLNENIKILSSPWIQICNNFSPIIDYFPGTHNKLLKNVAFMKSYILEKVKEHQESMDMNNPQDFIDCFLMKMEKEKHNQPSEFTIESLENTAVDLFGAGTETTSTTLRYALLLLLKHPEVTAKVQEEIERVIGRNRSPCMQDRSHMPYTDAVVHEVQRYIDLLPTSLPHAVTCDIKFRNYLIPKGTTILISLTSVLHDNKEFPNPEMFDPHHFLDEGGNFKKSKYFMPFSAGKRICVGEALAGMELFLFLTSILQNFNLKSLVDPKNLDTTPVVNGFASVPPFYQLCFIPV

Row | Structure (SMILES) | EC50 [1] | Emax [1] | IC50 [2] | IC50 [3] | IC50 [4] | IC50 [5] | Ki [6]
1 | O=C(O)c1nc2ccccc2c(=O)n1C1C[C@H]2CCC[C@@H](C1)N2C1C[C@H]2CCC[C@@H](C1)C2 (stereo partly drawn) [9 (D2b), 3-((1R,1′R,3R,3′R,5S,5′S)-[3,9′-bi(9′-azabicyclo[3.3.1]nonan)]-3′-yl)-4-oxo-3,4-dihydroquinazoline-2-carboxylic acid] | > 20 µM | 1% | > 20 µM | > 20 µM | 2.6 µM | > 20 µM | 
2 | O=c1[nH]c2ccccc2c(=O)n1C1C[C@H]2CCC[C@@H](C1)N2C1C[C@H]2CCC[C@@H](C1)C2 (stereo partly drawn) [12 (D1a)] | > 20 µM | 1.33 ± 0.33% | > 20 µM | > 20 µM | 8.9 µM | > 20 µM | 
3 | O=C(O)Cn1c(=O)n(C2C[C@H]3CCC[C@@H](C2)N3C2C[C@H]3CCC[C@@H](C2)C3)c(=O)c2ccccc21 (stereo partly drawn) [15 (D3a), 2-(3-((1R,1′R,3r,3′R,5S,5′S)-[3,9′-bi(9′-azabicyclo[3.3.1]nonan)]-3′-yl)-2,4-dioxo-3,4-dihydroquinazolin-1(2H)-yl)acetic acid] | > 20 µM |  | > 20 µM | > 20 µM | > 20 µM | > 20 µM | 
4 | CCC1C[C@@H]2CC(N3[C@@H]4CCC[C@H]3CC(n3c(=O)c5ccccc5n(CC(=O)O)c3=O)C4)C[C@H](C1)C2 (stereo partly drawn) [24 (D459a), 2-(3-((1R,1′R,3r,3′R,5S,5′S)-7-ethyl-[3,9′-bi(9′-azabicyclo[3.3.1]nonan)]-3′-yl)-2,4-dioxo-3,4-dihydroquinazolin-1(2H)-yl)acetic acid] | > 20 µM |  | > 20 µM | > 20 µM | 18.7 µM | 5.8 µM | 0.229 µM
5 | O=C(O)Cn1c(=O)n(C2C[C@H]3CCC[C@@H](C2)N3C2C[C@H]3CCCC[C@@H](C2)C3)c(=O)c2ccccc21 (stereo partly drawn) [21 (J3a), 2-(3-((1R,3R,5S)-9-((1R,6S,8r)-bicyclo[4.3.1]decan-8-yl)-9-azabicyclo[3.3.1]nonan-3-yl)-2,4-dioxo-3,4-dihydroquinazolin-1(2H)-yl)acetic acid] | > 20 µM |  | 5.5 µM | > 20 µM | > 20 µM | 2.3 µM | 
6 | CCOC(=O)c1nc2ccccc2c(=O)n1C1C[C@H]2CCC[C@@H](C1)N2C1C[C@H]2CCC[C@@H](C1)C2 (stereo partly drawn) [8 (D12b), ethyl 3-((1R,1′R,3R,3′R,5S,5′S)-9′-aza[3,9′-bi(bicyclo[3.3.1]nonan)]-3′-yl)-4-oxo-3,4-dihydroquinazoline-2-carboxylate] |  |  | > 20 µM | > 20 µM | 9.7 µM | 6.5 µM | 0.252 µM
7 | O=C(O)CNC(=O)Cn1c(=O)n(C2C[C@H]3CCC[C@@H](C2)N3C2C[C@H]3CCC[C@@H](C2)C3)c(=O)c2ccccc21 (stereo partly drawn) [18 (D28a), 2-(2-(3-((1R,1′R,3r,3′R,5S,5′S)-[3,9′-bi(9′-azabicyclo[3.3.1]nonan)]-3′-yl)-2,4-dioxo-3,4-dihydroquinazolin-1(2H)-yl)acetamido)acetic acid] | > 20 µM | 1% | > 20 µM | > 20 µM | 1.6 µM | > 20 µM | 
